From patent US12121514B2, “Nonselective metabotropic glutamate receptor activators for treatment of attention deficit disorder and 22Q syndrome” (THE CHILDREN'S HOSPITAL OF PHILADELPHIA, priority 2015, dated 2024)

System: adolescent subjects with ADHD and at least one genetic alteration in an mGluR network gene
Assay: QUOTIENT ADHD test, Phase Ib trial of NFC-1
Assay type: in vivo, human
Details: Tier-1 genetic group; week 5 (400 mg twice daily); from just over 100; P<0.05
Source text: Quotient ADHD scores use a medical device to measure hyperactivity, attention, and impulsivity in patients with ADHD. The Quotient ADHD tool uses motion tracking technology to track a patient's micro-movements while they complete a 15-20-minute computerized test. Following the patient's completion of the test, patterns of motions, the accuracy of responses, and fluctuations in attention state can be analyzed. All efficacy assessments, except actigraphy, were made at study enrollment (“enrollment baseline”) and again, including actigraphy, once-per-week for the placebo week (“week 1” or “placebo baseline”) and at each of the 4 weeks of NFC-1 treatment. These efficacy measures include items 1-18 of the Vanderbilt scale assessing symptoms related to inattentiveness and hyperactivity-impulsiveness as well as additional questions 19-47 of the Vanderbilt scale assessing other behavioral symptoms (conducted by parent), actigraphy for quantitative measurement of activity, Quotient® ADHD test for objective measurement of micro-motion and shifts in attention state, PERMP-Math test, and CGI-I and CGI-S for assessment of global functioning. […]

O=C1CC[C@H](C(=O)N2CCCCC2)N1 [NFC-1, fasoracetam monohydrate]
normalized inattention value (QUOTIENT ADHD test): about 90
